Data published in the supplement of paper PMC10307832.

Columns and labels:
Assay in all cases: relative viability (nuclei count vs DMSO), 5 days (fraction); higher = more cells survive
VE-821 + Bortezomib = compound: CS(=O)(=O)c1ccc(-c2cnc(N)c(C(=O)Nc3ccccc3)n2)cc1 [VE-821] + CC(C)C[C@H](NC(=O)[C@H](Cc1ccccc1)NC(=O)c1cnccn1)B(O)O [Bortezomib] (partner 0.002 µM)
Summary of the method: (§1)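 Lung cancer cell lines in 1536-well plates got either a single drug or a fixed anchor-drug dose together with five library-drug doses (not always all listed) in √10 steps, by pin tool, on the day after seeding. Nuclei were counted after 5 days, and relative viability is the treated-to-vehicle ratio of nuclei counts. Values are medians of duplicate plates.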

Vismodegib + Bortezomib = compound: CS(=O)(=O)c1ccc(C(=O)Nc2ccc(Cl)c(-c3ccccn3)c2)c(Cl)c1 [Vismodegib] + CC(C)C[C@H](NC(=O)[C@H](Cc1ccccc1)NC(=O)c1cnccn1)B(O)O [Bortezomib] (partner 0.002 µM)
Summary of the method: as §1

Vismodegib + Crizotinib = compound: CS(=O)(=O)c1ccc(C(=O)Nc2ccc(Cl)c(-c3ccccn3)c2)c(Cl)c1 [Vismodegib] + C[C@@H](Oc1cc(-c2cnn(C3CCNCC3)c2)cnc1N)c1c(Cl)ccc(F)c1Cl [Crizotinib] (partner 1 µM)
Summary of the method: as §1

Vismodegib + Dasatinib = compound: CS(=O)(=O)c1ccc(C(=O)Nc2ccc(Cl)c(-c3ccccn3)c2)c(Cl)c1 [Vismodegib] + Cc1nc(Nc2ncc(C(=O)Nc3c(C)cccc3Cl)s2)cc(N2CCN(CCO)CC2)n1 [Dasatinib] (partner 0.075 µM)
Summary of the method: as §1

Cell Line | relative viability (VE-821 + Bortezomib; first compound 0.08 µM) | relative viability (VE-821 + Bortezomib; first compound 0.253 µM) | relative viability (VE-821 + Bortezomib; first compound 0.8 µM) | relative viability (VE-821 + Bortezomib; first compound 2.53 µM) | relative viability (VE-821 + Bortezomib; first compound 8 µM) | relative viability (Vismodegib + Bortezomib; first compound 0.08 µM) | relative viability (Vismodegib + Bortezomib; first compound 0.253 µM) | relative viability (Vismodegib + Bortezomib; first compound 0.8 µM) | relative viability (Vismodegib + Bortezomib; first compound 2.53 µM) | relative viability (Vismodegib + Bortezomib; first compound 8 µM) | relative viability (Vismodegib + Crizotinib; first compound 0.08 µM) | relative viability (Vismodegib + Crizotinib; first compound 0.253 µM) | relative viability (Vismodegib + Crizotinib; first compound 0.8 µM) | relative viability (Vismodegib + Crizotinib; first compound 2.53 µM) | relative viability (Vismodegib + Crizotinib; first compound 8 µM) | relative viability (Vismodegib + Dasatinib; first compound 0.08 µM) | relative viability (Vismodegib + Dasatinib; first compound 0.253 µM) | relative viability (Vismodegib + Dasatinib; first compound 0.8 µM) | relative viability (Vismodegib + Dasatinib; first compound 2.53 µM) | relative viability (Vismodegib + Dasatinib; first compound 8 µM)
NCI-H1650 | 0.194 | 0.195 | 0.339 | 0.187 | 0.213 | 0.196 | 0.314 | 0.198 | 0.205 | 0.191 | 0.884 | 0.904 | 0.97 | 0.932 | 0.918 | 0.276 | 0.347 | 0.339 | 0.258 | 0.291
NCI-H2023 | 1.08 | 0.902 | 0.763 | 0.549 | 0.218 | 0.906 | 0.889 | 0.915 | 1.02 | 0.943 | 0.586 | 0.56 | 0.707 | 0.615 | 0.685 | 0.564 | 0.534 | 0.628 | 0.455 | 0.558
SK-LU-1 | 1.28 | 1.13 | 0.99 | 1.12 | 1.21 | 1.17 | – | 0.979 | 1.1 | 1.16 | 1.02 | 0.817 | 0.874 | 0.881 | 0.997 | 0.211 | 0.196 | 0.204 | 0.211 | 0.211
NCI-H2347 | 1.07 | 0.881 | 0.729 | 0.876 | 0.878 | 1 | 0.9 | – | 0.969 | 0.968 | 0.691 | 0.713 | 0.64 | 0.582 | 0.656 | 0.281 | 0.35 | 0.331 | 0.272 | 0.293
NCI-H727 | 0.872 | 0.817 | 0.741 | 0.761 | 0.493 | 0.876 | 0.835 | 0.905 | 0.939 | 0.77 | 0.733 | 0.771 | 0.576 | 0.938 | 0.857 | 0.307 | 0.345 | 0.342 | 0.308 | 0.364
COR-L23 | 1.1 | 0.997 | 1.06 | 1 | 1.06 | 1 | 0.938 | 0.983 | 0.916 | 1.09 | 0.593 | 0.589 | 0.603 | 0.591 | 0.816 | 0.507 | 0.455 | 0.543 | 0.452 | 0.533
NCI-H2126 | 1.22 | 1.04 | 1.11 | 1.04 | 1.09 | 1.08 | 1.09 | 1.1 | 1.14 | 1.15 | 1.11 | 0.96 | 1.08 | 0.991 | 1.04 | 0.666 | 0.57 | 0.554 | 0.544 | 0.473
NCI-H1703 | 0.335 | 0.346 | 0.339 | 0.289 | 0.22 | 0.368 | 0.257 | 0.372 | 0.342 | 0.401 | 0.54 | 0.664 | 0.628 | 0.57 | 0.93 | – | – | – | – | –
H3255 | 0.799 | 0.882 | 0.813 | 0.853 | 0.906 | 0.855 | 0.632 | 0.596 | 0.762 | 0.753 | 0.812 | 0.737 | 0.965 | 0.913 | 0.597 | 0.303 | 0.329 | 0.38 | 0.37 | 0.309
NCI-H1915 | 0.967 | 0.958 | 1.03 | 0.999 | 0.962 | 1.05 | 0.976 | 0.985 | 0.905 | 0.953 | 0.903 | 0.874 | 0.877 | 0.866 | 0.965 | 0.346 | 0.296 | 0.295 | 0.266 | 0.326
NCI-H358 | – | – | – | – | – | – | – | – | – | – | 0.596 | 0.479 | 0.546 | 0.551 | 0.579 | 0.149 | 0.183 | 0.193 | 0.172 | 0.161
NCI-H23 | 1 | 0.991 | 1.14 | 0.829 | 0.323 | 1.16 | 1.01 | 0.931 | 0.986 | 0.944 | 0.489 | 0.54 | 0.597 | 0.553 | 0.537 | 0.81 | 0.825 | 0.73 | 0.838 | 0.754
NCI-H1395 | – | – | – | – | – | – | – | – | – | – | – | – | – | – | – | 0.385 | 0.389 | 0.398 | 0.417 | 0.414
A549 | – | – | – | – | – | – | – | – | – | – | 0.711 | 0.759 | 0.796 | 0.672 | 0.686 | – | – | – | – | –
NCI-H2170 | – | – | – | – | – | – | – | – | – | – | 1.23 | 1.08 | 1.19 | 1.17 | 1.31 | 0.542 | 0.623 | 0.627 | 0.62 | 0.639
NCI-H1623 | – | – | – | – | – | – | – | – | – | – | – | – | – | – | – | 0.48 | 0.565 | 0.557 | 0.51 | 0.462
SK-MES-1 | – | – | – | – | – | – | – | – | – | – | 0.94 | 0.936 | 0.923 | 0.969 | 1.07 | 0.401 | 0.313 | 0.407 | 0.413 | 0.429
NCI-H1944 | – | – | – | – | – | – | – | – | – | – | 0.993 | 1.22 | 1.08 | 1.05 | 1.08 | 0.228 | 0.213 | 0.201 | 0.242 | 0.204
IA-LM | 0.762 | 0.795 | 0.781 | 0.803 | 0.764 | 0.892 | 0.825 | 0.867 | 0.754 | 0.795 | 0.719 | 0.769 | 0.906 | 0.681 | 0.94 | – | – | – | – | –
NCI-H522 | – | – | – | – | – | – | – | – | – | – | – | – | – | – | – | 0.915 | 0.888 | 0.883 | 0.793 | 0.879
EBC-1 | 0.534 | 0.546 | 0.555 | 0.517 | 0.4 | 0.481 | 0.564 | 0.567 | 0.559 | 0.67 | 0.173 | 0.201 | 0.168 | 0.182 | 0.202 | – | – | – | – | –
Calu-6 | 0.945 | 0.907 | 0.891 | 0.937 | 0.429 | 0.969 | 1.03 | 1.02 | 1.05 | 0.987 | 0.705 | 0.754 | 0.757 | 0.814 | 0.886 | – | – | – | – | –
NCI-H1793 | – | – | – | – | – | – | – | – | – | – | – | – | – | – | – | – | 0.408 | 0.374 | 0.416 | 0.365
